Results on two compounds are retold here after patent US20140011853A1, “SUBSTITUTED 3-(BIPHENYL-3-YL)-8,8-DIFLUORO-4-HYDROXY-1-AZASPIRO[4.5]DEC-3-EN-2-ONES FOR THERAPY” (BAYER INTELLECTUAL PROPERTY GMBH, priority 2011, published 2014).

A word on the pIC50: it is −log10 of the IC50, conventionally taken in molar units. Broadly, the chromatographic logP is lipophilicity estimated from chromatographic retention. Read a low chromatographic logP as lower lipophilicity.

One data set concerns the target T1, human ACC1 (Homo sapiens, UniProt Q13085).
T1 construct: FLAG (C); made in house; host or cells: baculovirus-infected insect cells (Hi5)
The data set can be described thus: Human ACC1 enzyme assay (ADP-Glo). Type of data set: biochemical. As to conditions: ACC 1 IC50, individual measurements. Background: ADP-Glo first removes unused ATP, then detects ADP through luciferase.

For another data set, the system named is PC3. The data set can be described thus: Tumour cell proliferation, CellTiter-Glo, 96-hour incubation, PC3. In kind it is cell-based. As to conditions: Homo sapiens, PC-3, 96 h, read-out: PC3 IC50. An outline of the steps:
(§1)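 Cells seeded at 2000-5000 cells/well, separate t=0 plate read after overnight at 37° C; compound-treated plates incubated 96 hours at 37° C, CellTiter-Glo luminescence. Growth inhibition (%) from t=96 minus t=0 luminescence, treated versus untreated control.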
In general terms: ATP-based viability assays read luminescence as a measure of living cells.

A further data set relates to MCF7. As to the kind of experiment: Tumour cell proliferation, CellTiter-Glo, 96-hour incubation, MCF7. In kind it is cell-based. As to conditions: Homo sapiens, MCF7, 96 h, read-out: MCF7 IC50. In outline:
as §1

A short description of data set [1]: Octanol/water distribution coefficient (logP/D), isocratic HPLC method. Type of data set: physicochemical. As to conditions: pH 7.4.
The nature of data set [2]: Plasma protein binding by equilibrium dialysis, mouse. In kind it is in vitro ADME. As to conditions: read-out: fu (mouse). Here is the method: The binding of test substances to plasma proteins is determined by equilibrium dialysis by means of the Ht-dialysis apparatus (96-well) made of Teflon and a semipermeable membrane (regenerated cellulose, MWCO 12-14K). This separates 150 μl each of a plasma side and a buffer side (50 mM phosphate buffer). The test substance is added in 2 concentrations (usually 3 and 0.3 μM) to the plasma side and binds to plasma proteins. The unbound fraction of the test substance passes through the membrane and is distributed on either side until equilibrium is established (after approx. 6-8 h at 37° C.). The substance concentration on the buffer side and the plasma side is determined by LC-MS analysis. For this, both sides are brought by dilution with buffer or plasma to the same matrix (10% plasma) and then precipitated with methanol. The free (unbound) fraction (fu) is calculated from the quotient of the buffer and plasma concentration. Stability tests and recovery tests are run concurrently as controls. In addition, the substance in buffer is dialysed against buffer, to check the nonspecific binding to apparatus and membrane and establishment of equilibrium. Because during incubation the osmotic pressure of the plasma proteins leads to dilution of the plasma (volume shift), this possible error is determined by weighing blank plasma samples and is included in the calculation of fu. Establishment of equilibrium and plasma stability should have a value not lower than 80% and the recovery should be at least 30%. A free fraction of <1% is regarded as high, between 1 and 10% as moderate and >10% as low plasma protein binding.

pIC50: −log10 of the molar value. Where “and” joins values, the source holds several entries; their conditions need not be identical. Identical values can stand only once.

Take `Cc1ccc(-c2ccc(Cl)cc2)cc1C1=C(O)C2(CCC(F)(F)CC2)NC1=O` [Example 1-2, 3-(4′-Chloro-4-methylbiphenyl-3-yl)-8,8-difluoro-4-hydroxy-1-azaspiro[4.5]dec-3-en-2-one]: the pIC50 is 7.17 and 7.10 and 7.00 and 6.96 and 7.14 and 7.19 and 6.87 and 6.82 against human ACC1; 7.30 with PC3; 7.52 with MCF7. In addition, the chromatographic logP in data set [1] stood at 1.73. In data set [2], the fraction unbound was determined as 0.0349.

In the case of `Cc1ccc(-c2ccc(Cl)c(F)c2)cc1C1=C(O)C2(CCC(F)(F)CC2)NC1=O` [Example 1-1, 3-(4′-Chloro-3′-fluoro-4-methylbiphenyl-3-yl)-8,8-difluoro-4-hydroxy-1-azaspiro[4.5]dec-3-en-2-one], the pIC50 at human ACC1 was 6.93 and 6.90 and 7.16 and 7.02 and 7.24 and 7.01 and 7.28 and 7.27; in the data set on PC3, 7.41; with MCF7, 7.66. Besides, the chromatographic logP in data set [1] worked out at 1.9. For the same compound, in data set [2], the fraction unbound turned out to be 0.0184.
